# Laboratory results as given in ChEMBL document CHEMBL4311972, “Discovery of a benzothiophene-flavonol halting miltefosine and antimonial drug resistance in Leishmania parasites through the application of medicinal chemistry, screening and genomics” (Eur J Med Chem, 2019).
# Experiments:
# CYP2D6 = CYP2D6 (Homo sapiens, UniProt P10635); test: Inhibition of human microsomal CYP2D6 expressed in baculovirus infected insect cells at 10 uM using luciferin-ME as substrate preincubated with enzyme/substrate mixture for 30 mins followed by further incubation with NADPH for 30 mins by CYP450 luciferase Glo assay relative to control; format: ADME; conditions: probe luciferin-ME
# hERG (KCNH2) = hERG (KCNH2) (Homo sapiens, UniProt Q12809); test: Inhibition of human ERG at 10 uM incubated for 2 hrs by fluorescence polarization assay relative to control
# [1] = Selectivity index, ratio of CC50 for human THP1 cells to EC50 for luciferase expressing intracellular amastigote stage of Leishmania infantum infected in human THP1 cells; format: toxicity, cell-based; conditions: read-out: Ratio CC50/EC50
# CYP2C9 = CYP2C9 (Homo sapiens, UniProt P11712); test: Inhibition of human microsomal CYP2C9 expressed in baculovirus infected insect cells at 10 uM using luciferin-H as substrate preincubated with enzyme/substrate mixture for 30 mins followed by further incubation with NADPH for 30 mins by CYP450 luciferase Glo assay relative to control; format: ADME; conditions: probe luciferin-H
# [2] = Cytotoxicity against human THP1 cells by MTT assay; format: cell-based, THP-1
# CYP1A2 = molecular target: T1, CYP1A2 (Homo sapiens, UniProt P05177); test: Inhibition of human microsomal CYP1A2 expressed in baculovirus infected insect cells at 10 uM using luciferin-1A2 as substrate preincubated with enzyme/substrate mixture for 30 mins followed by further incubation with NADPH for 30 mins by CYP450 luciferase Glo assay relative to control; format: ADME; conditions: probe luciferin-1A2
# T1 sequence (P05177 whole entry): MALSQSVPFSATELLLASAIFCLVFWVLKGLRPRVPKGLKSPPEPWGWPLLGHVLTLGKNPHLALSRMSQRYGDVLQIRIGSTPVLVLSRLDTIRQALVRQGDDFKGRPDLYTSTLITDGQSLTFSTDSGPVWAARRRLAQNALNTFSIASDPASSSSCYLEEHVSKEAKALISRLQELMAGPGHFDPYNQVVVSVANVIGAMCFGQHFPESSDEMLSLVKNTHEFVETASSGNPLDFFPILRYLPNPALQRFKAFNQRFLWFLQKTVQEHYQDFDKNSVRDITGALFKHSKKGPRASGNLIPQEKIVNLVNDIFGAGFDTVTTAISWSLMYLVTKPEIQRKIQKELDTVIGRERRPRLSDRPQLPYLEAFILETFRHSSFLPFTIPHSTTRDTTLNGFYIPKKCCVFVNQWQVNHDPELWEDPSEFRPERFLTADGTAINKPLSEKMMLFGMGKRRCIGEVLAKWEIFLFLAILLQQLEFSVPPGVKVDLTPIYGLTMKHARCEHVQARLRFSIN
# CYP2C19 = CYP2C19 (Homo sapiens, UniProt P33261); test: Inhibition of human microsomal CYP2C19 expressed in baculovirus infected insect cells at 10 uM using luciferin-H EGE as substrate preincubated with enzyme/substrate mixture for 30 mins followed by further incubation with NADPH for 30 mins by CYP450 luciferase Glo assay relative to control; format: ADME; conditions: probe luciferin-H EGE
# CYP3A4 = CYP3A4 (Homo sapiens, UniProt P08684); test: Inhibition of human microsomal CYP3A4 expressed in baculovirus infected insect cells at 10 uM using luciferin-IPA as substrate preincubated with enzyme/substrate mixture for 30 mins followed by further incubation with NADPH for 30 mins by CYP450 luciferase Glo assay relative to control; format: ADME; conditions: probe luciferin-IPA
# Leishmania infantum = test: Antileishmanial activity against luciferase expressing intracellular amastigote stage of Leishmania infantum infected in human THP1 cells assessed as parasite growth inhibition measured after 48 to 72 hrs by steady-glo luciferase assay; format: functional, organism-based; conditions: Leishmania infantum, THP-1; read-out: EC50
# [3] = Cytotoxicity against human A549 cells assessed as cell growth at […] incubated for 48 hrs by Celltiter-Glo luminescence assay relative to control; format: cell-based; set-up: dose or concentration left out as unconfirmed; conditions: read-out: Activity
# 786-0 = test: Mitochondrial toxicity in human 786-0 cells at 10 uM incubated with compound for 6 hrs followed by incubation with MitoTracker Red chloromethyl-X-rosamine dye for 45 mins by imaging analysis; format: cell-based; conditions: 786-0, 6 h
# Trypanosoma brucei = test: Antitrypanosomal activity against Trypanosoma brucei bloodstream form assessed as parasite growth inhibition incubated for 72 hrs by resazurin dye based assay; format: functional, organism-based; conditions: Trypanosoma brucei, 72 h; read-out: EC50
# [4] = Selectivity index, ratio of CC50 for human THP1 cells to EC50 for Trypanosoma brucei bloodstream form; format: toxicity; conditions: read-out: Ratio CC50/EC50
# Chain of CYP2C19 (P33261 whole entry): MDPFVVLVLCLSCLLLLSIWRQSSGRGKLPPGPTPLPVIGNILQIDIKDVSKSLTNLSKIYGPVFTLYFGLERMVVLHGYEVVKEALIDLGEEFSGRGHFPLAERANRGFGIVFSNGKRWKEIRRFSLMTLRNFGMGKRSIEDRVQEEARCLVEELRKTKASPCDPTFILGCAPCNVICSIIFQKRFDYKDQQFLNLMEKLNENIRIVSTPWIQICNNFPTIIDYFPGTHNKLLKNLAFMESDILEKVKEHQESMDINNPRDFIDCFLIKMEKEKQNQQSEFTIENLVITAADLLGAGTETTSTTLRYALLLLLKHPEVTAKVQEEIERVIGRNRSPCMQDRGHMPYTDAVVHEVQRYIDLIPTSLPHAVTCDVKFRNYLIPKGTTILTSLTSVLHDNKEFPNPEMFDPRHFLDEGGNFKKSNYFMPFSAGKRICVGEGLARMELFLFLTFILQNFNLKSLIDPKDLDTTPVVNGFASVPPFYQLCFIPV
# Chain of CYP2C9 (P11712 whole entry): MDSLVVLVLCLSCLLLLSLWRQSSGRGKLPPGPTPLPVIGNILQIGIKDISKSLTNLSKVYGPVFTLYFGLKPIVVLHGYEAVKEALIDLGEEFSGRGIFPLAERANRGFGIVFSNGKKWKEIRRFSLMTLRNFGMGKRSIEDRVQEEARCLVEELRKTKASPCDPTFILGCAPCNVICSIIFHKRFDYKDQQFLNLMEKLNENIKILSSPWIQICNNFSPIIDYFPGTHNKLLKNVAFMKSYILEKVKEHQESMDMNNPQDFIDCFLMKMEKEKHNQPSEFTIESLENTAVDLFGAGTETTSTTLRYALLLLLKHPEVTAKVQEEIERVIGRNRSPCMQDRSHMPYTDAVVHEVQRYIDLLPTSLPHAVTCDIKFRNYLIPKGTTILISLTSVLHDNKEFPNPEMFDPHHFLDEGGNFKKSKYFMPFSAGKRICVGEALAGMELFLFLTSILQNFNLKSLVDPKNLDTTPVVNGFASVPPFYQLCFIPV
# Chain of CYP3A4 (P08684 whole entry): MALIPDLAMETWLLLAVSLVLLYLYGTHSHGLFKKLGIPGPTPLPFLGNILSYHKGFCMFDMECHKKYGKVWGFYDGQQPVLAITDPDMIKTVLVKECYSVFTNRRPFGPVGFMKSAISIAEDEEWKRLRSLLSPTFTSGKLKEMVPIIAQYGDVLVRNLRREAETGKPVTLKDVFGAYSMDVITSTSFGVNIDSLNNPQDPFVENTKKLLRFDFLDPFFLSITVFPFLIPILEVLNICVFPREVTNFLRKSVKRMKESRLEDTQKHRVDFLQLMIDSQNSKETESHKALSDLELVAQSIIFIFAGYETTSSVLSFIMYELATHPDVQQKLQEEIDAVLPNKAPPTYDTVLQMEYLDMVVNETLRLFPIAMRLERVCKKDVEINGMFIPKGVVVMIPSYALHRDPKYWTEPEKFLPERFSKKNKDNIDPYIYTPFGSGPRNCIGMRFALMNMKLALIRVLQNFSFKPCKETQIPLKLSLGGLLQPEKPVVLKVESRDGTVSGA
# Chain of CYP2D6 (P10635 whole entry): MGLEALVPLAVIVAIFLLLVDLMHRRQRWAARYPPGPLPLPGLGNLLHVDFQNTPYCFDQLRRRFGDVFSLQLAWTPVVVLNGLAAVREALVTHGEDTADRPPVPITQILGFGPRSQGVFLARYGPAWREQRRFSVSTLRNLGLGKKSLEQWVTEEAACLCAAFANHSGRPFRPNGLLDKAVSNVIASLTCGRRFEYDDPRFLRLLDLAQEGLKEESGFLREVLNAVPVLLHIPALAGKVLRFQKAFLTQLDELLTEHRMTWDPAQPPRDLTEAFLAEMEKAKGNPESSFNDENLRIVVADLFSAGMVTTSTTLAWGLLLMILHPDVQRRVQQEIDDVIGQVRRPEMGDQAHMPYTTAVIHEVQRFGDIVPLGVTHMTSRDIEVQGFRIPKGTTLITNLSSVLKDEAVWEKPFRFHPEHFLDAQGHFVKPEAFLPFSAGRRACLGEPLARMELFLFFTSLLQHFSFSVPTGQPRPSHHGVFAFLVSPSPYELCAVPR
# Chain of hERG (KCNH2) (Q12809 whole entry): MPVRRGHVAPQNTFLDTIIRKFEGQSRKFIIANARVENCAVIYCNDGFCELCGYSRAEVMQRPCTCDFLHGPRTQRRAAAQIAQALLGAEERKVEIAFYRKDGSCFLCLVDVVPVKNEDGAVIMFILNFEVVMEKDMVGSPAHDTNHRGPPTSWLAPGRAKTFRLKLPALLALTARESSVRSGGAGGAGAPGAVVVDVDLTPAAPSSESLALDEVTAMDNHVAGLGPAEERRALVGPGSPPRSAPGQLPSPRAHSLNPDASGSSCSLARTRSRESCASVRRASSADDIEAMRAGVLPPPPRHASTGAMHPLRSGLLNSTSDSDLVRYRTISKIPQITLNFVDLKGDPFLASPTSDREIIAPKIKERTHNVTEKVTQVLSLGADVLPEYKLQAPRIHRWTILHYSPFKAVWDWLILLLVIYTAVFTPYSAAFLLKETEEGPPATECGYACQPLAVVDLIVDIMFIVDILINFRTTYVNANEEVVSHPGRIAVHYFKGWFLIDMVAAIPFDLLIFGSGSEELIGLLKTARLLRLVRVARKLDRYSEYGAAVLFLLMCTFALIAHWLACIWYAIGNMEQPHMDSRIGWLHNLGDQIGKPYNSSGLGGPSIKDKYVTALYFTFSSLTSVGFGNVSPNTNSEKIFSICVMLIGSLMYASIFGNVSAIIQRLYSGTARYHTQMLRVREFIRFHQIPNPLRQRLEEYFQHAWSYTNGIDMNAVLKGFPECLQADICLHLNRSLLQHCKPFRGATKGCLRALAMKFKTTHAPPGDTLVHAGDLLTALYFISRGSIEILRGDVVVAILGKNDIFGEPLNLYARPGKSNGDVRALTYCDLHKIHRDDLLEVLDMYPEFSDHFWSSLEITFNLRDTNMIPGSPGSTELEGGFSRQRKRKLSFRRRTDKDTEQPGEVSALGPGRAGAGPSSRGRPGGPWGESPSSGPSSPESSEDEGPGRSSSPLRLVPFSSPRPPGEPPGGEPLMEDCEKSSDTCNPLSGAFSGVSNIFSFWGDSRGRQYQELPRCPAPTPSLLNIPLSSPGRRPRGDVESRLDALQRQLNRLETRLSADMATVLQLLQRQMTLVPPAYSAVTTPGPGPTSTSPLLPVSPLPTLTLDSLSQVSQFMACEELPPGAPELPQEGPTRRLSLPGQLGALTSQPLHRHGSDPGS
Structure (SMILES),"inhibition at 0.5 h, 10 µM (CYP2D6)","inhibition at 2 h, 10 µM (hERG (KCNH2))",selectivity ratio [1],"inhibition at 0.5 h, 10 µM (CYP2C9)",CC50 [2],"inhibition at 0.5 h, 10 µM (CYP1A2)","inhibition at 0.5 h, 10 µM (CYP2C19)","inhibition at 0.5 h, 10 µM (CYP3A4)",EC50 (Leishmania infantum),viability at 48 h [3],Activity (786-0),EC50 (Trypanosoma brucei),selectivity ratio [4]
O=c1c(O)c(-c2csc3ccccc23)oc2ccc(Cl)cc12,16.2%,-14%,5,28.6%,12.5 to 25 µM,84.7%,12%,1.36%,2.7 µM,126%,-21.98%,2.1 µM,
O=c1c(O)c(-c2cccc(-c3ccc(O)c(O)c3)c2)oc2ccc(O)cc12,34%,4.2%,,-22.6%,25 to 50 µM,51.9%,31.5%,21.5%,,32.5%,-1.03%,1.7 µM,15
CCCCC(=O)Oc1c(-c2csc3ccccc23)oc2ccc(OC)cc2c1=O,29.3%,1.12%,5,48.3%,12.5 to 25 µM,83.3%,33.9%,61.8%,2.4 µM,12.4%,0.75%,1.3 µM,
COc1ccc2oc(-c3csc4ccccc34)c(OC(C)=O)c(=O)c2c1,30.8%,-30%,6,-229%,12.5 to 25 µM,90.7%,69.6%,42%,2.1 µM,47.3%,-27.27%,1.3 µM,
COc1ccc2c(=O)c(O)c(-c3sccc3C)oc2c1,9.1%,-3.84%,,45.5%,12.5 to 25 µM,108%,35.2%,79.4%,,65%,-8.17%,4.9 µM,3
COc1ccc2oc(-c3cccc(-c4ccc(OC)c(OC)c4)c3)c(O)c(=O)c2c1,40.6%,-14.3%,,40.1%,25 to 50 µM,83.1%,22%,52.5%,,19.5%,-9.66%,3 µM,8
COc1ccc2c(=O)c(O)c(-c3ccc4c(c3)OCO4)oc2c1,105%,9.49%,,72.7%,> 100 µM,101%,80.3%,55.5%,,43.2%,6.41%,0.4 µM,250
O=c1c(O)c(-c2c[nH]c3ccccc23)oc2ccc(O)cc12,-0.42%,53.2%,,40.2%,50 to 100 µM,101%,47.9%,18.7%,,5.87%,17.38%,3.1 µM,16
O=c1c(O)c(-c2csc3ccccc23)oc2ccc(F)cc12,16.8%,-29.6%,4,25.4%,25 to 50 µM,86.4%,26%,11.5%,6 µM,99.1%,-23.6%,1.5 µM,
COc1ccc2c(=O)c(O)c(-c3cc(C)cs3)oc2c1,33.6%,5.93%,,59.6%,25 to 50 µM,103%,77.9%,12.5%,,80.9%,0.01%,3 µM,8
Cc1ccc2oc(-c3ccc(C)s3)c(O)c(=O)c2c1,22.6%,34.3%,,6.64%,25 to 50 µM,96.5%,19.1%,10.4%,,30.9%,-15.83%,3.3 µM,7
Cc1csc(-c2oc3ccc(O)cc3c(=O)c2O)c1,40.1%,16.1%,,40.1%,10 to 25 µM,96.1%,35.2%,17.6%,,93.8%,4.24%,4.9 µM,2
COc1ccc2oc(-c3cc(C)cs3)c(O)c(=O)c2c1,30.6%,6.55%,,29.2%,25 to 50 µM,94.8%,20.9%,4.51%,,98.8%,-5.29%,5.7 µM,4
O=c1c(O)c(-c2csc3ccccc23)oc2ccc(Br)cc12,27.5%,-60.1%,9,25.3%,25 to 50 µM,78%,24.3%,-6.12%,2.7 µM,119%,-22.7%,1.5 µM,
COc1ccc2oc(-c3c[nH]c4ccccc34)c(O)c(=O)c2c1,-8%,41.2%,,28.8%,12.5 to 25 µM,101%,32.6%,11%,,20.9%,-12.53%,1.4 µM,8
COc1ccc2oc(-c3cccc(-c4ccc5c(c4)OCO5)c3)c(O)c(=O)c2c1,21.9%,0.34%,,25.8%,25 to 50 µM,61.8%,24.5%,44.6%,,30.5%,-1.63%,3.9 µM,6
COc1cccc2oc(-c3cc(C)cs3)c(O)c(=O)c12,21.2%,-7.47%,,53.5%,12.5 to 25 µM,106%,19.2%,24.5%,,25.3%,-7.63%,3.4 µM,4
Cc1csc(-c2oc3ccc(C)cc3c(=O)c2O)c1,25.3%,13.2%,,35.1%,> 100 µM,98.8%,26.2%,23.5%,,15.3%,-13.79%,2.8 µM,36
